According to paper PMC8879074, “A Novel Small Molecular Prostaglandin Receptor EP4 Antagonist, L001, Suppresses Pancreatic Cancer Metastasis” (Molecules, 2022):

Tests used:
[1] = Body weight of mice in Pan02-Luc metastasis model; type: in vivo, C57BL/6 mice; conditions: L001 75 mg/kg p.o. daily; gemcitabine 25 mg/kg i.p. twice a week; n = 6
Description: (§1) Male C57/BL6 mice (6–8 weeks) were obtained from the National Rodent Laboratory Animal Resources (NRLAR, Shanghai, China). All mice were housed according to Institutional Animal Care and Use Committee guidelines and under a protocol approved by East China Normal University Ethics Committee with respect to animal care and welfare assurance. The bioluminescent liver metastasis mouse model was established as described previously. In brief, 2 × 10^6 Pan02/luc cells suspended in 50 μL of PBS were injected into mice spleen. […] Tumor metastasis was monitored by using an in vivo imaging system following intraperitoneal injection with D-Luciferin (2 mg per mouse; Promega). Bioluminescence intensity was recorded every seven days by a Xenogen IVIS-200 Optical in vivo imaging system (PerkinElmer; Waltham, MA, USA) for up to 4 weeks. The mouse body weight was measured every other day. Survival curve analysis was performed using GraphPad Prism 7.

[2] = tested on: Pan02-Luc hepatic metastasis; test: Pan02-Luc liver metastasis model with bioluminescent imaging; type: in vivo, C57BL/6 mice; conditions: L001 or E7046 75 mg/kg p.o. daily, gemcitabine 25 mg/kg i.p. twice a week; for reduction of Pan02 cell liver metastases (bioluminescence of separated livers) / reduction in median luminescence signal compared with vehicle control group: n = 6; for reduction in median luminescence signal compared with vehicle control group: day 28; for median survival: n = 9, control 34 days
Description: as §1
Mouse liver tissues were harvested, fixed, paraffin embedded, and sectioned (8 μm). The tissues were permeabilized with 0.25% TritonX-100 at room temperature for 15 min, blocked with 1% FBS in PBS, and followed by incubation in primary antibodies at 4 °C overnight: rabbit anti-YAP (1:50 dilution, ab205270, abcam). The sections were then washed with PBS, incubated with anti-rabbit secondary antibody for 2 h and dyed with DAPI (10 μg/mL in PBS) for 5 min at room temperature. Slides were mounted using DPX Mountant (Electron Microscopy Sciences) and images were obtained by inverted fluorescence microscope (Olympus, Tokyo, Japan).

Pan02 cells [3] = test: Transwell migration assay, Pan02; type: cell-based, murine; conditions: 0.1 μM PGE2; 16 h
Description: (§2) The transwell assay was conducted as described previously, using 8 μm pore transwell inserts (Corning, NY, USA). Cells were suspended in serum-free DMEM and seeded into upper chambers at appropriate density. The bottom chamber was filled with DMEM supplemented with 10% fetal bovine serum and indicated concentrations of PGE2. The compounds were added in both upper and bottom chambers. […] Migrated cells were counted and quantified using image J.

BxPC-3 cells [4] = test: Transwell migration assay, BxPC-3; type: cell-based, human; conditions: 0.1 μM PGE2; 16 h
Description: as §2

[5] = tested on: YAP/TEAD reporter in BxPC-3 cells; test: TEAD-driven luciferase reporter assay, BxPC-3; type: cell-based, human; conditions: 16 h
Description: (§3) CHO-K1 cells or pancreatic cancer cell lines were transfected with a cAMP responsive element (CRE) reporter or TEAD reporter using lipofectamine 2000 according to the manufacturer’s manual. […] Then, cells were lysed and luciferase activities were determined using Dual-Luciferase Reporter Assay Kit (Promega, Madison, WI, USA).

[6] = tested on: YAP, CYR61 and CTGF mRNA in Pan02 cells; test: Real-time qPCR of YAP and YAP target genes, Pan02; type: cell-based, murine; conditions: 10 μM PGE2
Description: (§4) Total RNA was extracted from cells using TRIzol reagent. The cDNA was synthesized by RT-PCR kit (Vazyme Biotech, Nanjing, China). The band intensity was determined by the gel image analysis system (Bio-Rad, Hercules, CA, USA). SYBR Green-based qPCR (Yeason, Shanghai, China) was conducted subsequently. Relative mRNA levels of target genes were normalized with β-actin. The sequences of primers are listed in Supplementary Table S1. The raw data are listed in Supplementary Table S2.

[7] = tested on: YAP/TEAD reporter in Pan02 cells; test: TEAD-driven luciferase reporter assay, Pan02; type: cell-based, murine; conditions: 16 h
Description: as §3

BxPC-3 cells [8] = test: Wound healing assay, BxPC-3; type: cell-based, human; conditions: various concentrations of PGE2
Description: (§5) The wound healing assay was performed according to a standard protocol as described before. Briefly, Pan02 and BxPC-3 cells were grown as a confluent monolayer in 12-well plates (Corning, Corning, NY, USA) overnight and starved with serum-free medium for 6 h. The monolayer cells were disrupted with a P100 micropipette tip (JET BIOFIL, Guangzhou, China) and rinsed with PBS to remove detached cells. Medium containing different concentrations of compounds was added subsequently. After 24 h, treated cells were stained with 2 μM calcein-AM (Yeasen, Shanghai, China) for 20 min and washed with PBS. Photos were taken of the area in the scraped zone of each dish at 100× magnification by using an inverted fluorescent microscope (OLYMPUS, Tokyo, Japan).

Pan02 cells [9] = test: Wound healing assay, Pan02; type: cell-based, murine; conditions: various concentrations of PGE2
Description: as §5

[10] = tested on: YAP protein in Pan02 cells; test: Western blotting of YAP protein, Pan02; type: cell-based, murine; conditions: 10 μM PGE2
Description: (§6) Cells were lysed in RIPA lysis buffer with phosphatase and protease inhibitors (Calbiochem, San Diego, CA, USA) and denatured by heating at 100 °C for 10 min. Proteins were separated on 10% bis-tris polyacrylamide gels, transferred to nitrocellulose filter membranes (Millipore, Burlington, NJ, USA), and blocked with 5% BSA (Sangon Biotech, Shanghai, China). The membranes were incubated with the indicated primary antibodies overnight and subsequently probed with indicated secondary antibodies. Images of the blots were taken and analyzed by Odyssey imaging system (Li-COR Biosciences, Lincoln, NE, USA). The primary antibodies were listed as follows: Human-YAP (1:10,000 dilution, CY5381, abways); Mouse-YAP (1:1000 dilution, ab205270, abcam); EP4 (1:500 dilution, 101775, Cayman Chemical); GAPDH (1:10,000 dilution, Ab181602, abcam).

[11] = tested on: YAP protein in BxPC-3 cells; test: Western blotting of YAP protein, BxPC-3; type: cell-based, human; conditions: 10 μM PGE2
Description: as §6

[12] = tested on: YAP, CYR61, CTGF, Vimentin, Snail, E-cadherin mRNA in BxPC-3 cells; test: Real-time qPCR of YAP, YAP target genes and EMT markers, BxPC-3; type: cell-based, human; conditions: 10 μM PGE2
Description: as §4

Structure (SMILES): Nc1ccn([C@@H]2O[C@H](CO)[C@@H](O)C2(F)F)c(=O)n1 [gemcitabine]
- body weight loss [1]: barely found
- H&E imaging of liver sections [2]: remarkably reduced metastatic clusters
- reduction of Pan02 cell liver metastases (bioluminescence of separated livers) [2]: 93.2%
- reduction in median luminescence signal compared with vehicle control group [2]: 91.79%
- median survival [2]: 46 days

Structure (SMILES): C[C@H](NC(=O)c1c(C(F)F)nn(C)c1Oc1cccc(C(F)(F)F)c1)c1ccc(C(=O)O)cc1 [E7046]
- H&E imaging of liver sections [2]: remarkably reduced metastatic clusters
- reduction of Pan02 cell liver metastases (bioluminescence of separated livers) [2]: 76.42%
- reduction in median luminescence signal compared with vehicle control group [2]: 69.13%
- median survival [2]: 35 days

Structure (SMILES): CCCCC[C@H](O)/C=C/[C@H]1[C@H](O)CC(=O)[C@@H]1C/C=C\CCCC(=O)O [PGE2, Prostaglandin E2, reference compound]
- increase in migrated Pan02 cells (Pan02 cells [3]): 1.2 fold
- increase in migrated BxPC-3 cells (BxPC-3 cells [4]): 2.5 fold
- max luminescence fold increase of TEAD-driven luciferase activity [5]: 1.56 fold
- expression of YAP target genes CYR61 and CTGF over time [6]: elevated
- max luminescence fold increase of TEAD-driven luciferase activity [7]: 1.87 fold
- cell motility (wound closure) vs vehicle (BxPC-3 cells [8]): significantly promoted the motility
- cell motility (wound closure) vs vehicle (Pan02 cells [9]): significantly promoted the motility
- level of intracellular YAP protein over time [10]: significantly increased
- level of intracellular YAP protein over time [11]: significantly increased
- expression of YAP target genes CYR61 and CTGF over time [12]: elevated
